# Source: a melting point compilation (Tetko et al.; mined from patent text by program, amines drawn as free bases though some values may be those of a salt)
row,Structure (SMILES),melting point
1,CCCCCn1c2ccccc2c2cc(C(=O)NCC(C)(C)C)ncc21,91 to 92 °C
2,O=C(NCC1(c2ccccc2)CCCC1)N1CCC(Sc2ccc(CCNC[C@H](O)COc3ccc(O)cc3)cc2)CC1,132 °C
3,C=CCN(C(C)c1ccccc1)S(=O)(=O)c1ccc(O)cc1 (stereo unspecified),128 to 129 °C
4,CCN(CC)c1ccc(-c2cc(-c3ccc(C(=O)O)cc3)ccc2OCCCCO)cc1C(C)(C)C,165 °C
5,CC(C)COC(c1cc(Cl)cc([N+](=O)[O-])c1O)c1cc(Cl)cc([N+](=O)[O-])c1O,95 °C
6,N#Cc1ccc(OCc2ccc(CCc3ccncc3)cc2)cc1,139 to 140 °C
7,CC(C)(C)OC(=O)N1CCC2(CC1)CC(c1ncccc1Cl)=NO2,97 to 102 °C
8,Cc1ccc(-c2ccc3c(c2)CC[C@H]2N(C)C(=O)CC[C@]32C)cc1,178 °C
9,CCCCc1ccc2ncn(Cc3ccc(-c4ccccc4-c4nnnn4COC)cc3)c(=O)c2c1,112 °C
10,N#Cc1cc(C(=O)O)ccc1Cl,180 °C
11,Cc1nc(Cl)c(C#N)nc1C,83 to 85 °C
12,CC(=O)Nc1ccc(Cn2c3c(c4cc(F)cc(F)c42)CCCC3CC(=O)O)cc1 (stereo unspecified),237 to 239 °C
13,COc1ccc(-c2nccc(N3CCN(c4c(C)c(C)c5c(c4C)CC(C)(C)O5)CC3)n2)cc1,240 to 242 °C
14,Cc1ccccc1C1SC2(CCN(C)CC2)c2ccccc21 (stereo unspecified),132 to 134 °C
15,Oc1ccc2c(c1O)OCC(c1cccc(C(F)(F)F)c1)C2 (stereo unspecified),99 to 100 °C
16,C#Cc1ccc(C2=C(C#N)C(=C(C#N)C#N)OC2(C)C)cc1,225 °C
17,Oc1ccccc1-c1cc(-c2ccc(F)c(F)c2)cc(-c2ccc(Cl)cc2)n1,146 to 148 °C
18,N#Cc1cc(C#N)c(-c2ccc(Cl)cc2)[nH]1,235 to 240 °C
19,COc1ccc(-c2n[nH]c3ccc([N+](=O)[O-])cc23)cc1,153 °C
20,CCS(=O)(=O)Nc1cc(Cc2c[nH]cn2)ccc1Cl,159 to 160 °C
21,CSc1nn2c(O)cc(C)nc2c1S(=O)(=O)c1ccc(C)cc1,> 230 °C
22,CCCC(=O)n1nc(-c2ccncc2)nc1-c1ccncc1,116 to 118 °C
23,Cc1c(C(C)CC(=O)O)n(Cc2ccc(Cl)cc2)c2ccc(O)cc12 (stereo unspecified),162 °C
24,CNS(=O)(=O)c1ccc(-c2coc3ccc(-c4nnc(C)o4)cc23)cc1,203 to 204 °C
25,O=C(O)C1CC(=O)N(c2cc(C(F)(F)F)cc(C(F)(F)F)c2)C1 (stereo unspecified),108 to 109 °C
26,CS(=O)(=O)c1ccc(Oc2ccc(Br)cc2)nc1,125 to 126 °C

row,Structure (SMILES),melting point
1,N#CC1CN1C(=O)NC(=O)C(Cl)Cl (stereo unspecified),164 to 166 °C
2,CC1Sc2c(C(=O)O)c(=O)c3cc(F)c(N4CCNCC4)c(F)c3n21 (stereo unspecified),260 °C
3,Cc1cc(C(=O)Nc2cc(Oc3ccc4nc(NC(=O)C5CC5)cn4n3)ccc2Cl)n(C)n1,255 °C
4,CN(C)C(=O)OCCOc1ccc(CC(NC(=O)OC(C)(C)C)C(O)CNCC(O)C(Cc2ccccc2)NC(=O)O)cc1 (stereo unspecified),128 to 132 °C
5,CCOC(=O)COc1ccc2ncnc(Nc3ccc(F)c(Cl)c3)c2c1,161 to 163 °C
6,Fc1ccc([C@H]2CC[C@H](NCc3ccn4c(CC5CC5)nnc4c3C(F)(F)F)CC2)c(F)c1,110 °C
7,S=c1cc(-c2nc[nH]n2)oc2ccccc12,232 °C
8,c1cc2c(c3c1CCN3)CCS2,170 to 172 °C
9,CCc1nc(Cl)c2c(-c3ccc([N+](=O)[O-])o3)nn(C)c2n1,165 °C
10,O=C(O)[C@H](Cc1ccc(F)cc1)[C@@H](O)c1ccc(C(F)(F)F)cc1 (racemic),120 to 121 °C
11,CN1CC(C(=O)N(C)C(Cc2ccc(Cl)cc2)Cc2ccc(Cl)cc2)=C(O)C1=O,152 to 154 °C
12,CN1C(=O)Cc2cc(Br)cnc21,149 °C
13,Cc1cc(C(=O)N(C)C)ccc1-c1ccc(C(=O)O)cc1,190 to 192 °C
14,O=C(O)[C@@H]1CC[C@H](c2ccccc2)N1C(=O)CCS,61 to 64 °C
15,CCCCCCC(=O)C=Cc1ccc(OCc2ccccc2)c(OC)c1,78 to 81 °C
16,CCOC(=O)c1cn(-c2ccc([N+](=O)[O-])cc2)cn1,198 to 200 °C
17,CNc1ccc2ccccc2c1-c1c(P(c2ccccc2)c2ccccc2)ccc2ccccc12,100 °C
18,Cc1nc(-c2noc(Cc3ccccc3)n2)sc1C(=O)NCc1ccccc1,124 to 125 °C
19,COC(=O)[C@H](CC(C)C)NC(=O)c1ccco1,88 to 90 °C
20,COC(=O)Cc1ccc(OS(=O)(=O)C(F)(F)F)c([N+](=O)[O-])c1,44 to 45 °C
21,O=C(CBr)CN1C(=O)c2ccccc2C1=O,139 to 141 °C
22,O=C(c1ccc(Cl)cc1)C(F)CCCl (stereo unspecified),53 °C
23,CCN(CC)S(=O)(=O)c1cc(Cl)c(Cl)c(Cl)c1SCCl,82 to 83 °C
24,Nc1nc(N)c2c(n1)NCC(CCc1ccc(C(=O)N[C@@H](CCC(=O)O)C(=O)O)cc1)C2 (stereo partly specified),> 250 °C
25,Cc1nn(-c2cc(Oc3ccc([N+](=O)[O-])cc3)c(Cl)cc2Cl)c(=O)n1C(F)F,99 to 101 °C
26,CCOC(=O)c1cnc2n(CC)c3ccccc3n2c1=O,118 to 120 °C

row,Structure (SMILES),melting point
1,N#CCOC(=O)c1cc(SCc2ccccc2)c(Cc2ccccc2)c(S(N)(=O)=O)c1,190 to 192 °C
2,CCCCCCCCCCCCSCC(CO)NC(=O)CCCCCCCCCC (stereo unspecified),64 to 67 °C
3,O=C(Nc1cccc2c1C(=O)c1c-2n[nH]c1C1CCN(C(=O)Oc2ccccc2)CC1)NN1CCOCC1,250 to 252 °C
4,CCC1(CC)C(=O)ON(C(=O)c2cc(OC)c(OC)c(OC)c2)C1=O,103 to 106 °C
5,FC(F)(F)c1ccccc1-c1cccc(C=NNC(=S)NN2CCCC2)n1,142 to 146 °C
6,COc1ccc(CCNC(=O)OC(C)(C)C)cc1O,100 to 101 °C
7,Cc1c2c(c(Br)c(C(C)C)c1OCc1ccccc1)OC(C)(C)C2,156 °C
8,CN(C)C1Cc2cccc3[nH]c(=O)n(c23)C1 (stereo unspecified),220 to 223 °C
9,CN1CC[C@@H](c2cc(Cl)ccc2O)[C@@H]1c1ccccc1I (relative stereo),123 °C
10,CCOC(=O)CCc1c(C)nc(CC)n(Cc2ccc(-c3ccccc3-c3nnn[nH]3)cc2)c1=O,76 to 80 °C
11,CC(NC(=O)CC(CNC(=O)OC(C)(C)C)c1ccc(Cl)c(Cl)c1)c1ccccc1 (stereo unspecified),161 to 162 °C
12,Cc1c(C)c2c(c(C)c1O)CC(CCI)O2 (racemic),96 to 97 °C
13,CN1C(=O)CN=C(c2ccccc2F)c2c1cc(Cl)c(N)c2Cl,234 °C
14,CCCOc1ccc(C)cc1-c1nc2c(CCC)nn(C)c2c(=O)[nH]1,115 to 116 °C
15,NCC(=O)Nc1ccc(Cl)cc1C(=NCCO)c1ccccc1F,128 to 132 °C
16,CC(=O)Oc1ccc(CCl)cc1C(OC(C)=O)OC(C)=O,93 to 95 °C
17,CCCc1cccc2c(/C=C(\C)C(=O)O)cc(OC)c(OCOC)c12,67 to 68 °C
18,CCOC(=O)CNC(=O)CNCc1ccc(-c2cc3ncnc(Nc4ccc5[nH]ccc5c4)c3s2)cc1,98 to 115 °C
19,CNC(=S)NCCSCc1csc(N)n1,136 to 140 °C
20,COc1c2ccccc2c(-c2c(-c3c4ccccc4c(OC)c4ccccc34)c2=O)c2ccccc12,265 to 270 °C
21,NOCC(O)CN1CCOCC1 (stereo unspecified),83 to 85 °C
22,Cc1nn(-c2ccccn2)c2nc3ccccc3c(OCC(C)C)c12,117 to 120 °C
23,CCC(=O)Nc1ccc(-c2ccnc3c(C(=O)c4ccco4)cnn23)cc1,235 to 237 °C
24,Cc1cc(F)c(N)cc1-n1cc(C(=O)O)c(=O)c2cc(F)c(N3CC(O)C3)c(C)c21,147 to 151 °C
25,CC12C=CC(=O)C=C1CCC1C2CCC2(C)C(=O)COC12 (stereo unspecified),181 to 185 °C
26,O=C(Nc1ccc2ccc(Cl)nc2n1)C1CCC1,192 °C

row,Structure (SMILES),melting point
1,O=C(O)C1(C(=O)Nc2ccc(F)cc2F)CC1,160 to 163 °C
2,Cn1ncc(C(=O)N2CCC2)c1C(=O)Nc1cc2nc(-c3ccccc3)nn2cc1F,> 250 °C
3,COc1ccc2c(c1O)NC(OC)C1CCCN1C2=O (stereo unspecified),154 to 156 °C
4,CC1(C)COC(c2c(Cl)cc(Cl)cc2-c2ccc(F)cc2)=N1,93 to 95 °C
5,CC(=O)NNc1ccc(N)cc1,130 to 140 °C
6,CCCCCCCC(=O)Oc1ccc(C(=O)O)cc1,51 °C
7,O=C(O)CCCC(=O)CNC(=O)c1csc(NC(=O)NCc2ccccc2)n1,169 °C
8,Cc1noc(-c2ncn3c2[C@@H]2CCCN2C(=O)c2c-3ccc(F)c2Cl)n1,245 to 246 °C
9,CCOC(=O)/C=C/c1ccc(Cl)c(Cl)n1,102 to 103 °C
10,CCC(Oc1cccc(C)c1C)C1=NCCN1C=Nc1ccccn1 (stereo unspecified),108 to 110 °C
11,COc1cc2c(cc1OC)N(C(=O)C=Cc1ccccc1)CC(N(C)C)C2 (stereo unspecified),97 to 98 °C
12,COc1ccc(NC(=O)c2ccc(-c3ccc(S(C)=O)cc3)c(C)c2)cc1N1CCN(C)CC1 (stereo unspecified),210 to 212 °C
13,Cc1ccc(-c2cc(OCC(=O)N3CCOCC3)c3c(Cl)cccc3n2)cc1,170 °C
14,O=c1[nH]c2ccc(C3=NOC(CN4CCC(O)(Cc5ccc(F)cc5)CC4)C3)cc2o1 (stereo unspecified),195 to 204 °C
15,CCC1(CC)OC(=O)Nc2ccc(-c3cccc([N+](=O)[O-])c3)cc21,193 to 194 °C
16,Cc1cccc2c1NC(C(Cl)(Cl)Cl)OC2 (stereo unspecified),69 to 70 °C
17,CC(OC(=O)N(C(C)C)C(C)C)c1ccccc1[N+](=O)[O-] (stereo unspecified),40 to 41 °C
18,Cc1cc(OCc2coc(C=Cc3ccc(OC(F)F)cc3)n2)ccc1COCCn1ccnn1,119 to 120 °C
19,COc1ccc(C(=O)Nc2cc(NC(=O)c3cccc(N(C)C)c3)ccc2Br)cc1OC,184 °C
20,CC(C)N(Cc1ccc(Br)cc1)C(=S)Nc1ccccc1,134 °C
21,O=S(=O)(CCCCl)Nc1ccc(N2CCN(c3ccc(OCC(O)(Cn4cncn4)c4ccc(Cl)cc4Cl)cc3)CC2)cc1 (stereo unspecified),80 to 81 °C
22,CCC(C)(C)c1cccc(C(=O)NN)c1O,156 to 157 °C
23,CCOCc1nc2c(N)nc(C)c(C)c2n1CCOCC#Cc1cncnc1,122 to 124 °C
